Results as given in patent US4402972A, “Cyclopropane carboxylic acid derivatives” (Roussel Uclaf, priority 1980, dated 1983).

Legend:
[1] = test system: Fusarium, Penicillium, Aspergilus, Geotrichum, Trichosporon and Cephalosporium; experiment: Antifungal activity of the acids (general statement); assay type: cell-based
[2] = test system: mixture of spores of Fusarium roseum, Penicillium roquefonti and Aspergilus niger; experiment: Antifungal activity, adhesive test (3% carboxymethyl starch); assay type: cell-based; conditions: for Growth of Fungus after 48 hours / Growth of Fungus after 8 days: scale of 3 to 0, untreated control 3
Description: The antifungal activity of (1R,cis) 2,2-dimethyl-3-[Z-2-(methoxycarbonyl)-ethenyl]-cyclopropane-carboxylic acid was determined in an adhesive test using an aqueous 3% carboxymethyl starch solution. The test compound was dissolved in 1 ml of acetone and 5 ml of an innoculum consisting of a mixture of spores of Fusarium roseum, Penicillium roquefonti and Aspergilus niger were added thereto. The development of fungus after 48 hours and 8 days was compared to an untreated control on a scale of 3 to 0.

[3] = test system: mixture of spores of Geotrichum, Trichosporon and Cephalosporium; experiment: Anti-fungal test on oils (3% synthetic fluid); assay type: cell-based; conditions: for Anti-fungal growth after 48 hours: control 49 × 10^3 Geo. + 80 × 10^3 Tri. + 11 × 10^3 Cep.
Description: A solution of 3% of synthetic fluid was used to test the anti-fungal activity of (1R,cis) 2,2-dimethyl-3-[Z-2-(methoxycarbonyl)-ethenyl]-cyclopropane-carboxylic acid and contamination was effected with 5 ml of an innoculum consisting of a mixture of spores of Geotrichum, Trichosporon and Cephalosporium.

[4] = test system: mixture of spores of Aerobacter aerogenes, Pseudomonas aeruginosa, Escherichia coli, Serratia mancescens and Bacillus subtilis; experiment: Bactericidal activity (3% carboxymethyl starch in water); assay type: cell-based; conditions: for bacterial population after 48 hours: control 12 × 10^7; for bacterial population after 8 days: control 16 × 10^7
Description: The bactericidal activity of (1R,cis) 2,2-dimethyl-3-[Z-2-(methoxycarbonyl)-ethenyl]-cyclopropane-carboxylic acid was determined with a solution of 3% of carboxymethyl starch in water. The test compound was placed in 1 ml of water and 5 ml of an innoculum of a mixture of spores of Aerobacter aerogenes, Pseudomonas aeruginosa, Escherichia coli, Serratia mancescens and Bacillus subtilis were added thereto. The mixture was placed in an oven for 48 hours at 37° C. and then for 6 days at 20° C. The bacterial population ([…]) was determined 48 hours and 8 days by the serum dihibition method and incorporation into broth containing agar.

[5] = test system: houseflies; experiment: Knock-down activity on houseflies, direct spray in Kearns and March chamber; assay type: in vivo; conditions: for KT50: 0.25 g/l solution, 2 ml, direct spray, 4 day old females
Description: 50 4 day old female houseflies per dose were directly sprayed in a Kearns and March chamber with a solution of the 0.25 g/l of the test compound in 2 ml of a mixture of 5% of acetone and Isopar L (petroleum solvent) in one second.

[6] = test system: Spodoptera littoralis larvae; experiment: Activity against Spodoptera littoralis larvae, topical application; assay type: in vivo; conditions: dorsal thorax, fourth stage larvae, 48 hours
Description: The test was carried out on larvae of Spodoptera littoralis by applying an acetone solution of the test compound with an Arnold micro-manipulator to the dorsal thorax of the larvae. 10 to 15 larvae were used for each tested dose and the larvae were in the fourth stage (about 10 days old at 24° C. and 65% relative humidity). The larvae were then placed in an artifical medium (Poitout medium) and the number of dead were determined after 48 hours to calculate the LD50 in ng.

[7] = test system: insects; experiment: Insecticidal activity (general statement); conditions: in vivo
[8] = test system: houseflies; experiment: Insecticidal activity on houseflies, topical application; assay type: in vivo; conditions: 1 μl acetone solution, dorsal thorax, 4 day old females, 24 hours
Description: The test was effected on 4 day old female houseflies which received a topical application of 1 μl of an acetone solution of the test compound on the dorsal thorax with an Arnold micro-manipulator. 50 insects were used for each test and the number of dead insects were determined after 24 hours to calculate the LD50 dose in nanograms (the dose killing 50% of the insects).

[9] = test system: Epilachna varivestris Larvae; experiment: Activity against Epilachna varivestris larvae, topical application; assay type: in vivo; conditions: for LD50: topical, second last stage larvae, 72 hours
Description: The test was carried out by topical application of the test compounds as in test B and the larvae of Epilachna variestris were in second last stage. The treated larvae were then placed on bean plants and the number of dead was determined after 72 hours to calculate the LD50 in ng.

[10] = test system: Boophilus microplus ticks (Mexico sensitive strain); experiment: Inhibition of reproduction of Boophilus microplus ticks; assay type: in vivo
Description: Female Boophilus microplus ticks of the Mexico sensitive strain ready to lay eggs were immersed for 5 minutes in solutions of 100, 50, 25, 12.50 and 6.25 ppm of the compound of Example 6 and then they were placed in a heated enclosure to lay their eggs.

[11] = test system: Boophilus microplus larvae (Mexico sensitive); experiment: Activity against Boophilus microplus larvae, Mexico sensitive strain; assay type: in vivo
Description: (§1) A 10% emulsifiable concentrate was prepared by dissolving the test compound of Example 6 in a mixture of dimethylformamide, emulsifiers and Arcopal and the concentrate was diluted with water to obtain solutions of 10,5 and 1 ppm of active compound. The different solutions were sprayed by a spraying tower on to larvae of tropical cattle ticks of the Boophilus microplus type (Mexico sensitive and DDT resistant strains) and the number of dead and live larvae was determined after 24 hours.

[12] = test system: Boophilus microplus larvae (DDT resistant); experiment: Activity against Boophilus microplus larvae, DDT resistant strain; assay type: in vivo
Description: as §1

[13] = test system: Rhipicephalus appendiculatus; experiment: Activity against Rhipicephalus appendiculatus ticks; assay type: in vivo
Description: as §1
(§2) The test procedure of F was repeated with the compound of Example 6 at doses of 100, 10 and 1 ppm using 10 ticks of Rhipicephalus appendiculatus or Amblyomma hebraeum per test as above.

[14] = test system: Amblyomma hebraeum; experiment: Activity against Amblyomma hebraeum ticks; assay type: in vivo
Description: as §1, §2

[15] = Mexico sensitive and DDT resistant strains together
[16] = Rhipicephalus microplus, in Bos taurus, 1 ppm, 24 hours
[17] = Rhipicephalus microplus, in Bos taurus, 5 ppm, 24 hours
[18] = Rhipicephalus microplus, in Bos taurus, 10 ppm, 24 hours

COC(=O)/C=C\[C@H]1[C@@H](C(=O)O)C1(C)C (relative stereo) [(1R,cis) 2,2-dimethyl-3-[(Z)-2-(methoxycarbonyl)-ethenyl]-cyclopropane-carboxylic acid] was tested, and the “fungicidal properties / antifungal activity (in words)” value [1] was “interesting fungicidal properties”, the “anti-fungal activity (in words)” value [2] was “good anti-fungal activity” and the “Growth of Fungus after 48 hours” value ([2]; 0.01 % concentration) was 3. The “Growth of Fungus after 8 days” value ([2]; 0.01 % concentration) was 3, the “Growth of Fungus after 48 hours” value ([2]; 0.05 % concentration) was 0 and the “Growth of Fungus after 8 days” value ([2]; 0.05 % concentration) was 0. The “antifungal activity on oils (in words)” value [3] was “good antifungal activity”, the “Anti-fungal growth after 48 hours” value ([3]; 0.5 % concentration) was 0 and the “Anti-fungal growth after 48 hours” value ([3]; 1 % concentration) was 0. For the same compound, the “bactericidal activity (in words)” value [4] was “good bactericidal activity”, the “bacterial population after 48 hours” value ([4]; 0.025%) was 10 × 10^4 colorless ml and the “bacterial population after 8 days” value ([4]; 0.025%) was 16 × 10^6 colorless ml. For the same compound, the “bacterial population after 48 hours” value ([4]; 0.05%) was 52 × 10^2 colorless ml and the “bacterial population after 8 days” value ([4]; 0.05%) was 68 × 10^4 colorless ml.
COC(=O)/C=C\[C@H]1[C@@H](C(=O)O[C@H](C#N)c2cccc(Oc3ccccc3)c2)C1(C)C [Example 1, (S)α-cyano-3-phenoxy-benzyl (1R,cis) 2,2-dimethyl-3-[Z-2-methoxycarbonyl-ethenyl]-cyclopropane-carboxylate] was tested, and the KT50 [5] was 1.226 min, the “knock-down activity (in words)” value ([5]; in vivo) was “remarkable knock-down activity” and the LD50 [6] was 3.602 ng. The “insecticidal activity (in words)” value [7] was “particularly remarkable insecticidal activity”, the LD50 [8] was 7.128 ng and the LD50 [9] was 8.290 ng.
For CCOC(=O)/C=C\[C@H]1[C@@H](C(=O)O[C@H](C#N)c2cccc(Oc3ccccc3)c2)C1(C)C [Example 3, (S)α-cyano-3-phenoxy-benzyl (1R,cis) 2,2-dimethyl-3-[Z-2-(ethoxycarbonyl)-ethenyl]-cyclopropane-carboxylate], the KT50 [5] was 3.340 min, the LD50 [6] was 3.260 ng and the LD50 [8] was 3.494 ng. It also gave an LD50 [9] of 8.850 ng.
For CC(C)OC(=O)/C=C\[C@H]1[C@@H](C(=O)O[C@H](C#N)c2cccc(Oc3ccccc3)c2)C1(C)C [Example 5, (S)α-cyano-3-phenoxy-benzyl (1R,cis) 2,2-dimethyl-3-[Z-2-(isopropoxycarbonyl)-ethenyl]-cyclopropane-carboxylate], the KT50 [5] was 4.390 min, the LD50 [6] was 7.920 ng and the LD50 [8] was 2.781 ng. For the same compound, the LD50 [9] was 3.705 ng.
With CC(C)(C)OC(=O)/C=C\[C@H]1[C@@H](C(=O)O[C@H](C#N)c2cccc(Oc3ccccc3)c2)C1(C)C [Example 6, (S)α-cyano-3-phenoxy-benzyl (1R,cis) 2,2-dimethyl-3-[Z-2-(tert.-butoxycarbonyl)-ethenyl]-cyclopropane-carboxylate] the inhibition at 6.25 ppm ([10]; Rhipicephalus microplus, 5 min, 6.25 ppm, 5 minutes immersion) was 100%, the inhibition at 12.5 ppm ([10]; Rhipicephalus microplus, 5 min, 12.50 ppm, 5 minutes immersion) was 100% and the inhibition at 25 ppm ([10]; Rhipicephalus microplus, 5 min, 25 ppm, 5 minutes immersion) was 100%. For the same compound, the inhibition at 50 ppm ([10]; Rhipicephalus microplus, 5 min, 50 ppm, 5 minutes immersion) was 100%, the inhibition at 100 ppm ([10]; Rhipicephalus microplus, 5 min, 100 ppm, 5 minutes immersion) was 100% and the “tickicide activity, reproduction test (in words)” value ([10]; in vivo) was “remarkable tickicide activity”. For the same compound, the “activity against Boophilus microplus larvae, Mexico sensitive (in words)” value [11, 15] was “remarkable activity”, the mortality at 1 ppm [11, 16] was 100% and the mortality at 5 ppm [11, 17] was 100%. For the same compound, the mortality at 10 ppm [11, 18] was 100%, the “activity against Boophilus microplus larvae, DDT resistant (in words)” value [12, 15] was “remarkable activity” and the mortality at 1 ppm [12, 16] was 100%. The mortality at 5 ppm [12, 17] was 100%, the mortality at 10 ppm [12, 18] was 100% and the “insecticidal activity against Epilachna larvae (in words)” value ([9]; in vivo) was “good insecticidal activity”. The LD50 [9] was 0.446 ng, the mortality at 1 ppm ([13]; Rhipicephalus appendiculatus, 1 ppm) was 100% and the mortality at 10 ppm ([13]; Rhipicephalus appendiculatus, 10 ppm) was 100%. The mortality at 100 ppm ([13]; Rhipicephalus appendiculatus, 100 ppm) was 100%, the “tickicide activity against Rhipicephalus appendiculatus (in words)” value ([13]; in vivo) was “excellent tickicide activity” and the mortality at 1 ppm ([14]; Amblyomma hebraeum, 1 ppm) was 70%. For the same compound, the mortality at 10 ppm ([14]; Amblyomma hebraeum, 10 ppm) was 100%, the mortality at 100 ppm ([14]; Amblyomma hebraeum, 100 ppm) was 100% and the “tickicide activity against Amblyomma hebraeum (in words)” value ([14]; in vivo) was “excellent tickicide activity”.
